Drawing on a melting point compilation (Tetko et al.; mined from patent text by program, amines drawn as free bases though some values may be those of a salt), this text covers melting point for 34 compounds.

As a reminder, the melting point is the temperature of the solid-liquid transition.

Each structure is given as a SMILES string.

`CC(C)(C)c1cc(CCc2ccccc2NC(=O)NCCc2ccc(F)cc2)cc(C(C)(C)C)c1O` returned a melting point of 177 to 179 °C.
In turn, `CSc1ccc(N=C=O)cc1C(F)(F)F` registered a melting point of 40 °C.
Under `CCCNC(=O)c1ccc2c(c1)N(C(C)CN(C)CC)c1ccccc1S2` (racemic) stands 100 °C; under `O=C(C=Cc1ccccc1)Nc1cccc(O)c1`, 222 to 223 °C.
In the case of `CC(=O)N1CCC2(CC1)CC(=O)c1c(ccc([N+](=O)[O-])c1O)O2`, the melting point lay within 201 to 202 °C.
Compound `CC(=O)Oc1cc2c(c3ccccc13)N(C(=O)OC(C)OC(C)=O)c1ccccc1S2` (centres undefined) displayed a melting point of 76 to 78 °C.
As for `CC(=O)C(C(N)=O)=C(C)[N+](=O)[O-]`, the figure is 159 to 161 °C; as for `CC(=O)c1ccc(Oc2ccc(S(C)(=O)=O)cc2)cc1`, 131 to 132 °C.
On to `COCCOc1cc2nncc(Oc3cc(O)c(C)cc3F)c2cc1OC`, for which the melting point fell in the range of 267 to 273 °C.
As for `O=S(=O)(c1ccc(Cl)cc1)C(c1cc(F)ccc1F)c1ccncc1Cl` (centres undefined), the melting point lay in the range of 160 to 161 °C.
`Cc1noc(C)c1-c1ccccc1OC1SCC(O)C(O)C1O` (centres undefined) showed a melting point of 110 to 117 °C.
As for `Cc1nnc2n1-c1sc(CCS(=O)(=O)N3CCN(C)CC3)cc1C(c1ccccc1Cl)=NC2`, the figure is 148 to 150 °C; as for `CC(=O)C=Cc1c(C)c(C)c2c(c1C)CC(C)(C)O2`, 86 to 87 °C; as for `O=C(O)Cc1c(C(=O)c2ccccc2)[nH]c2ccc(Cl)c(Cl)c12`, 206 to 210 °C.
The compound `COc1ccc(C(=O)C(C(=O)Nc2cc(N)ccc2Cl)N2C(=O)c3ccccc3C2=O)cc1` (centres undefined) showed a melting point of 105 to 107 °C.
`O=C(c1ccccc1)c1ccc(OCC(O)COCCCCCCCCOCC(O)COc2ccc(C(=O)c3ccccc3)c(O)c2)cc1O` (centres undefined) had a melting point of 74 °C.
Under `CS(=O)(=O)Nc1ccc(N)cn1` stands 199 to 202 °C; under `Cc1ccccc1NC(=O)CI`, 145 to 146 °C.
For `COc1ccc(C=O)cc1OC1CC2CCC1C2` (centres undefined), the melting point is 75.5 to 79.5 °C.
For the compound `CCOC(=O)C1=C(N2CCCC2)N=C(C)C(C(=O)OCC)C1c1ccccc1` (centres undefined), the melting point stood at 57 °C.
Regarding `O=C(NCc1cccc(Br)c1)c1ccc2cnccc2n1`, the melting point is 112 to 113 °C.
`Cc1cc(C)c(-c2cn(C)c3nc(N4CCCCC4)n(C)c(=O)c23)c(C)c1` had a melting point of 210 to 212 °C.
`CC(=C(C#N)C(=O)c1ccc(F)cc1)N(C)C` came in with a melting point of 65 to 67 °C.
As for `CCN1CCC(Cc2ccc(Cl)nc2)C1=C[N+](=O)[O-]` (centres undefined), the figure is 129 to 131 °C; as for `CC(=O)OC1CC2=CCC3C4CCC(C(C)CO)C4(C)CCC3C2(C)C(O)C1` (centres undefined), 121 °C.
As for `CCNC(=O)CC1CN=C(c2cc3cc(Oc4ccc(COC)nc4)cc(OC)c3[nH]2)S1` (centres undefined), the figure is 130 to 132 °C; as for `CCC1c2ccc(F)n2-c2ccc(Br)cc2N1S(=O)(=O)c1ccc(O)cc1` (centres undefined), 160 to 162 °C.
Take `CC(Oc1ccc(CNC(=O)c2cccnc2Oc2ccc3c(c2)OCO3)c(F)c1)C(=O)O` (centres undefined): the melting point fell in the range of 136 to 138 °C.
As for `Cc1ccc(N(C(=O)CCl)c2c(F)cc(F)cc2Cl)cc1`, the figure is 137 to 140 °C.
In the case of `CCOCc1nc2c(N)nc(C)c(C)c2n1NC1CCC1`, the melting point is 139 to 141 °C.
In turn, `COC(=O)C1CC(C#N)(c2ccc(Cl)cc2)CCC1=O` (centres undefined) returned a melting point of 141 to 144 °C.
Regarding `COc1ccc(-c2cc(=O)n(Cc3c(Cl)cccc3Cl)nc2-c2ccc(OC)cc2)cc1`, the melting point amounted to 144 °C.
`COc1ccc2[nH]c3c(C(=O)Nc4ccc(CCCCN(C)Cc5ccc(OC)c(OC)c5)cc4)cccc3c(=O)c2c1` showed a melting point of 172 °C.
In turn, `CNN(NC)C(=O)Nc1cccc2c1C(=O)c1c-2n[nH]c1-c1ccc(OC)cc1` had a melting point greater than 300 °C.
